Laboratory results as given in patent US11753397B2, “Cereblon binders for the degradation of ikaros” (C4 Therapeutics, Inc., priority 2018, dated 2023).

Tested on: NCIH929.1 cells
Assay: Cell viability assay (CellTiter-Glo 2.0, ATP quantification)
Type: cell-based
Conditions: NCIH929.1 cell viability, CellTiter-Glo 2.0, 96 hr incubation, top concentration 1 μM
In short: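 Cells seeded at 750/well in RPMI with 10% FBS and 0.05 mM 2-mercaptoethanol, exposed 96 h at 37 °C to 10-point half-log dilutions in duplicate, top 1 μM. Viability by CellTiter-Glo 2.0 ATP luminescence, with a day-0 read as cytostatic baseline (CT0).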

SMILES | GI50
O=C1CCC(N2C(=O)c3cccc(NCc4cnn(C5CCN(C(=O)Cc6cnn(-c7ccccc7)c6)CC5)c4)c3C2=O)C(=O)N1 (stereo not shown) [Compound 120, 2-(2,6-dioxopiperidin-3-yl)-4-(((1-(1-(2-(1-phenyl-1H-pyrazol-4-yl)acetyl)piperidin-4-yl)-1H-pyrazol-4-yl)methyl)amino)isoindoline-1,3-dione] | < 100 nM
CO[C@H]1CC[C@H](C(=O)N2CCC(n3cc(CNc4cccc5c4C(=O)N(C4CCC(=O)NC4=O)C5=O)cn3)CC2)CC1 (stereo partly shown) [Compound 15, 2-(2,6-dioxopiperidin-3-yl)-4-(((1-(1-((1r,4r)-4-methoxycyclohexane-1-carbonyl)piperidin-4-yl)-1H-pyrazol-4-yl)methyl)amino)isoindoline-1,3-dione] | < 100 nM
CN(C)CCC(Nc1cccc2c1C(=O)N(C1CCC(=O)NC1=O)C2=O)c1cnn(C2CCN(C(=O)OC(C)(C)C)CC2)c1 (stereo not shown) [Compound 187, tert-Butyl 4-(4-(3-(dimethylamino)-1-((2-(2,6-dioxopiperidin-3-yl)-1,3-dioxoisoindolin-4-yl)amino)propyl)-1H-pyrazol-1-yl)piperidine-1-carboxylate] | > 100 nM
O=C1CCC(N2C(=O)c3cccc(NCc4cnn(C5CCN(C(=O)C6CCN(C(=O)Cc7ccccc7)CC6)CC5)c4)c3C2=O)C(=O)N1 (stereo not shown) [Compound 113, 2-(2,6-dioxopiperidin-3-yl)-4-(((1-(1-(1-(2-phenylacetyl)piperidine-4-carbonyl)piperidin-4-yl)-1H-pyrazol-4-yl)methyl)amino)isoindoline-1,3-dione] | < 100 nM
N#CC1(C(=O)N2CCC(n3cc(CNc4cccc5c4C(=O)N(C4CCC(=O)NC4=O)C5=O)cn3)CC2)CCC1 (stereo not shown) [Compound 81, 1-(4-(4-(((2-(2,6-dioxopiperidin-3-yl)-1,3-dioxoisoindolin-4-yl)amino)methyl)-1H-pyrazol-1-yl)piperidine-1-carbonyl)cyclobutane-1-carbonitrile] | < 100 nM
C[C@H](C(=O)N1CCC(n2cc(CNc3cccc4c3C(=O)N(C3CCC(=O)NC3=O)C4=O)cn2)CC1)c1ccccc1 (stereo partly drawn) [Compound 51, 2-(2,6-dioxopiperidin-3-yl)-4-(((1-(1-((S)-2-phenylpropanoyl)piperidin-4-yl)-1H-pyrazol-4-yl)methyl)amino)isoindoline-1,3-dione] | < 100 nM
CC(Nc1cccc2c1C(=O)N(C1CCC(=O)NC1=O)C2=O)c1cnn(C2CCN(C(=O)OC(C)(C)C)CC2)c1 (stereo not shown) [Compound 174, tert-Butyl 4-(4-(1-((2-(2,6-dioxopiperidin-3-yl)-1,3-dioxoisoindolin-4-yl)amino)ethyl)-1H-pyrazol-1-yl)piperidine-1-carboxylate] | < 100 nM
Cc1ccc(N2CCC(C(=O)N3CCC(n4cc(CNc5cccc6c5C(=O)N(C5CCC(=O)NC5=O)C6=O)cn4)CC3)CC2)nc1 (stereo not shown) [Compound 118, 2-(2,6-dioxopiperidin-3-yl)-4-(((1-(1-(1-(5-methylpyridin-2-yl)piperidine-4-carbonyl)piperidin-4-yl)-1H-pyrazol-4-yl)methyl)amino)isoindoline-1,3-dione] | < 1 nM
O=C1CCC(N2C(=O)c3cccc(NCc4cnn(C5CCN(C(=O)C6CC6)CC5)c4)c3C2=O)C(=O)N1 (stereo not shown) [Compound 24, 4-(((1-(1-(cyclopropanecarbonyl)piperidin-4-yl)-1H-pyrazol-4-yl)methyl)amino)-2-(2,6-dioxopiperidin-3-yl)isoindoline-1,3-dione] | < 100 nM
O=C1CCC(N2C(=O)c3cccc(NCc4cnn(C5CN(c6ccccc6)C5)c4)c3C2=O)C(=O)N1 (stereo not shown) [Compound 181, 2-(2,6-Dioxo-piperidin-3-yl)-4-{[1-(1-phenyl-azetidin-3-yl)-1H-pyrazol-4-ylmethyl]-amino}-isoindole-1,3-Dione] | < 100 nM
CC(C)CC(=O)N1CCC(n2cc(CNc3cccc4c3C(=O)N(C3CCC(=O)NC3=O)C4=O)cn2)CC1 (stereo not shown) [Compound 49, 2-(2,6-dioxopiperidin-3-yl)-4-(((1-(1-(3-methylbutanoyl)piperidin-4-yl)-1H-pyrazol-4-yl)methyl)amino)isoindoline-1,3-dione] | < 100 nM
O=C1CCC(N2C(=O)c3cccc(NCc4cnn(C5CCN(C(=O)C(F)(F)C(F)(F)F)CC5)c4)c3C2=O)C(=O)N1 (stereo not shown) [Compound 83, 2-(2,6-dioxopiperidin-3-yl)-4-(((1-(1-(2,2,3,3,3-pentafluoropropanoyl)piperidin-4-yl)-1H-pyrazol-4-yl)methyl)amino)isoindoline-1,3-dione] | < 100 nM
COCC(=O)N1CCC(C(=O)N2CCC(n3cc(CNc4cccc5c4C(=O)N(C4CCC(=O)NC4=O)C5=O)cn3)CC2)CC1 (stereo not shown) [Compound 111, 2-(2,6-dioxopiperidin-3-yl)-4-(((1-(1-(1-(2-methoxyacetyl)piperidine-4-carbonyl)piperidin-4-yl)-1H-pyrazol-4-yl)methyl)amino)isoindoline-1,3-dione] | < 100 nM
O=C1CCC(N2C(=O)c3cccc(NCc4cnn(C5CCN(C(=O)c6cccc(C#Cc7ccccc7)c6)CC5)c4)c3C2=O)C(=O)N1 (stereo not shown) [Compound 108, 2-(2,6-dioxopiperidin-3-yl)-4-(((1-(1-(3-(phenylethynyl)benzoyl)piperidin-4-yl)-1H-pyrazol-4-yl)methyl)amino)isoindoline-1,3-dione] | < 100 nM
O=C1CCC(N2C(=O)c3cccc(NCc4cnn(C5CCN(C(=O)C67CC(CO6)C7)CC5)c4)c3C2=O)C(=O)N1 (stereo not shown) [Compound 91, 4-(((1-(1-(2-oxabicyclo[2.1.1]hexane-1-carbonyl)piperidin-4-yl)-1H-pyrazol-4-yl)methyl)amino)-2-(2,6-dioxopiperidin-3-yl)isoindoline-1,3-dione] | < 100 nM
CC(C)(O)CC(=O)N1CCC(n2cc(CNc3cccc4c3C(=O)N(C3CCC(=O)NC3=O)C4=O)cn2)CC1 (stereo not shown) [Compound 46, 2-(2,6-dioxopiperidin-3-yl)-4-(((1-(1-(3-hydroxy-3-methylbutanoyl)piperidin-4-yl)-1H-pyrazol-4-yl)methyl)amino)isoindoline-1,3-dione] | < 100 nM
CC1(C(=O)N2CCC(n3cc(CNc4cccc5c4C(=O)N(C4CCC(=O)NC4=O)C5=O)cn3)CC2)CC1(Cl)Cl (stereo in doubt) [Compound 183, 4-(((1-(1-((S)-2,2-Dichloro-1-methylcyclopropane-1-carbonyl)piperidin-4-yl)-1H-pyrazol-4-yl)methyl)amino)-2-(2,6-dioxopiperidin-3-yl)isoindoline-1,3-dione] | < 1 nM
O=C1CCC(N2C(=O)c3cccc(NCc4cnn(C5CCN(C6CCCCC6)CC5)c4)c3C2=O)C(=O)N1 (stereo not shown) [Compound 133, 4-(((1-(1-cyclohexylpiperidin-4-yl)-1H-pyrazol-4-yl)methyl)amino)-2-(2,6-dioxopiperidin-3-yl)isoindoline-1,3-dione] | < 100 nM
CC(C)(O)C(=O)N1CCC(n2cc(CNc3cccc4c3C(=O)N(C3CCC(=O)NC3=O)C4=O)cn2)CC1 (stereo not shown) [Compound 52, 2-(2,6-dioxopiperidin-3-yl)-4-(((1-(1-(2-hydroxy-2-methylpropanoyl)piperidin-4-yl)-1H-pyrazol-4-yl)methyl)amino)isoindoline-1,3-dione] | < 100 nM
CC1(C(=O)N2CCC(n3ncc(CNc4cccc5c4C(=O)N(C4CCC(=O)NC4=O)C5=O)c3Br)CC2)CCC1 (stereo not shown) [Compound 188, 4-(((5-Bromo-1-(1-(1-methylcyclobutane-1-carbonyl)piperidin-4-yl)-1H-pyrazol-4-yl)methyl)amino)-2-(2,6-dioxopiperidin-3-yl)isoindoline-1,3-dione] | < 100 nM
O=C1CCC(N2C(=O)c3cccc(NCc4cnn(C5CCN(CC6(C(F)(F)F)CC6)CC5)c4)c3C2=O)C(=O)N1 (stereo not shown) [Compound 137, 2-(2,6-dioxopiperidin-3-yl)-4-(((1-(1-((1-(trifluoromethyl)cyclopropyl)methyl)piperidin-4-yl)-1H-pyrazol-4-yl)methyl)amino)isoindoline-1,3-dione] | < 100 nM
O=C1CCC(N2C(=O)c3cccc(NCc4cnn(C5CCN(C(=O)CC6CCCCC6)CC5)c4)c3C2=O)C(=O)N1 (stereo not shown) [Compound 27, 4-(((1-(1-(2-cyclohexylacetyl)piperidin-4-yl)-1H-pyrazol-4-yl)methyl)amino)-2-(2,6-dioxopiperidin-3-yl)isoindoline-1,3-dione] | < 1 nM
C[C@H](O)C(=O)N1CCC(n2cc(CNc3cccc4c3C(=O)N(C3CCC(=O)NC3=O)C4=O)cn2)CC1 (stereo partly drawn) [Compound 53, 2-(2,6-dioxopiperidin-3-yl)-4-(((1-(1-((S)-2-hydroxypropanoyl)piperidin-4-yl)-1H-pyrazol-4-yl)methyl)amino)isoindoline-1,3-dione] | < 100 nM
O=C1CCC(N2C(=O)c3cccc(NCc4cnn(C5CCN(C(=O)CC6CCC(c7ccccc7)CC6)CC5)c4)c3C2=O)C(=O)N1 (stereo not shown) [Compound 117, 2-(2,6-dioxopiperidin-3-yl)-4-(((1-(1-(2-(4-phenylcyclohexyl)acetyl)piperidin-4-yl)-1H-pyrazol-4-yl)methyl)amino)isoindoline-1,3-dione] | < 100 nM
CCn1cc(CNc2cccc3c2C(=O)N(C2CCC(=O)NC2=O)C3=O)cn1 (stereo not shown) [Compound 142, 2-(2,6-dioxopiperidin-3-yl)-4-(((1-ethyl-1H-pyrazol-4-yl)methyl)amino)isoindoline-1,3-dione] | < 100 nM
O=C1CCC(N2C(=O)c3cccc(NCc4cnn(C5CC5)c4)c3C2=O)C(=O)N1 (stereo not shown) [Compound 163, 4-[(1-Cyclopropyl-1H-pyrazol-4-ylmethyl)-amino]-2-(2,6-dioxo-piperidin-3-yl)-isoindole-1,3-dione] | < 100 nM
CC(C)(C)OC(=O)N1CCC(n2cc(CNc3cccc4c3C(=O)N(C3CCC(=O)NC3=O)C4=O)cn2)C(F)(F)C1 (stereo not shown) [Compound 176, tert-Butyl 4-(4-(((2-(2,6-dioxopiperidin-3-yl)-1,3-dioxoisoindolin-4-yl)amino)methyl)-1H-pyrazol-1-yl)-3,3-difluoropiperidine-1-carboxylate] | < 100 nM
O=C1CCC(N2C(=O)c3cccc(NCc4cnn(C5CCN(C(=O)CCC(F)(F)F)CC5)c4)c3C2=O)C(=O)N1 (stereo not shown) [Compound 30, 2-(2,6-dioxopiperidin-3-yl)-4-(((1-(1-(4,4,4-trifluorobutanoyl)piperidin-4-yl)-1H-pyrazol-4-yl)methyl)amino)isoindoline-1,3-dione] | < 100 nM
